The source of these data is patent publication US6602914B2, “Compounds and methods for the inhibition of the expression of VCAM-1” (AtheroGenics, Inc., priority 1997, dated 2003).

In the experiment the test system is ApoB/HepG2. The experiment can be described thus: Lipid Screen & IC50 Determination Protocol: ApoB ELISA of HEPG2 media. The experiment is classed as cell-based, human. The following applies: HEPG2, 24 hours; for inhibition at 15 µM: Homo sapiens. How it is done: HEPG2 cell was started in 10 ml of MEM, 10% FBS, 1 mM Sodium Pyruvate. The cells were incubated in a tissue culture incubator. The cells were split into 4×96-wells plate in MEM, 10% FBS, 1 mM Sodium Pyruvate and allowed to grow to about 50% confluency and then removed.
The cells were treated with the desired concentration of compounds in 100 μl DMEM, 1% RSA for 24 hours. The compounds are dissolved in DMSO.
On the same day, 4×96-wells NuncImmunoSorb plate is coated with 100 μl of mouse anti-human ApoB monoclonal 1D1 (1:1000 dilution in 1×PBS, pH 7.4). The coating is allowed overnight.
The coated plate is washed 3 times with 1×PBS, pH 7.4, −0.05% Tween 20. 100 μl of the standards is added to the selected wells. ApoB standards are prepared at 6.25, 3.12, 1.56, 0.78, 0.39 ng, and each concentration is done in triplicates. For samples:
90 μl of 1×PBS, pH 7.4, −0.05% Tween 20 is added to each well corresponding to the sample. 10 μl of media is transferred from the treated HEPG2 plates to the ApoB ELISA plate. The plate is incubated at room temperature for 2 hours, rocking gently.
Wash the coated plate 3× with 1×PBS, pH 7.4, −0.05% Tween 20. Add 100 μl of sheep anti-human ApoB polyclonal from Boehringer Mannheim. (1:2000 dilution in 1×PBS, pH 7.4, −0.05% Tween 20) from Boehringer Mannheim. Incubate at room temperature for 1 hour, rocking gently. Wash the coated plate 3× with 1×PBS, pH 7.4, −0.05% Tween 20. Add 100 μl of rabbit anti-sheep IgG (1:2000 dilution in 1×PBS, pH 7.4, −0.05% Tween 20). Incubate at room temperature for 1 hour, rocking gently. Wash the coated plate 3× with 1×PBS, pH 7.4, −0.05% Tween 20. Add 100 μl of substrate (10 ml of distilled water, 100 μl of TMB (10 mg/ml), and 1 μl of hydrogen peroxide). Allow color to emerge and stop reaction with 25 ul of 8N sulfuric acid. Wells are read with MicroPlate Reader @ […]. Graph accumulation of ApoB in media as a percentage of control for each sample and their concentration. A determination of IC50 is obtained from the graph.
The degree of inhibition of the compounds of formulas (I) and (II) was determined by the assays described in Examples 62-64.
For orientation: In an ELISA, binding on a coated surface is turned into a signal by an enzyme label.

One may read the inhibition as the change of the read-out against control, counted positive when it falls. Higher therefore signals a strong effect. In turn, `Cc1cc(SC(C)(C)Sc2cc(C(C)(C)C)c(O)c(C(C)(C)C)c2)cc(C)c1OCCCC(=O)O` [Butanoic acid, 4-[4-[[1-[[3,5-bis(1,1-dimethylethyl)-4-hydroxyphenyl]thio]-1-methylethyl]thio]2,6-dimethylphenoxy]-] showed an inhibition at 15 µM (at 15 μM) of 41%.

As for `CCCCC(OC(C)=O)Sc1cc(C(C)(C)C)c(O)c(C(C)(C)C)c1` (centres unmarked) [2,6-di-tert-butylthio((1′-(acetoxy))pentyl)phenol], for the setting “bare number = IC50, NE not defined in the patent, read-out: ApoB/HepG2 IC50 or % inhibition at [μM]: IC50”, the IC50 came to 30 µM.

As to `CC(C)(CO)CC(=O)Oc1c(C(C)(C)C)cc(SC(C)(C)Sc2cc(C(C)(C)C)c(O)c(C(C)(C)C)c2)cc1C(C)(C)C` [Butanoic acid, 4-hydroxy-3,3-dimethyl-, 4-[[1-[[3,5-bis(1,1-dimethylethyl)-4-hydroxyphenyl]thio]-1-methylethyl]thio]-2,6-bis(1,1-dimethylethyl)phenyl ester], the inhibition at 15 µM (at 15 μM) is 90%.

For the compound `CC(C)(Sc1cc(C(C)(C)C)c(O)c(C(C)(C)C)c1)Sc1cc(C(C)(C)C)c(OCC(O)CO)c(C(C)(C)C)c1` (centres unmarked) [1,2-Propanediol, 3-[4-[[1-[[3,5-bis(1,1-dimethylethyl)-4-hydroxyphenyl]thio]-1-methylethyl]thio]-2,6-bis(1,1-dimethylethyl)phenoxy]-], the inhibition at 15 µM (at 15 μM) came to 40%.

Compound `CC(C)(Sc1cc(C(C)(C)C)c(O)c(C(C)(C)C)c1)Sc1cc(C(C)(C)C)c(OCC(O)CNCC(=O)O)c(C(C)(C)C)c1` (centres unmarked) [Glycine, N-[3-[4-[[1-[(3,5-bis(1,1-dimethylethyl)-4-hydroxyphenyl]thio]-1-methylethyl]thio]-2,6-bis(1,1-dimethylethyl)phenoxy]2-hydroxypropyl]-] showed an inhibition at 15 µM (at 15 μM) of 45%.

Consider `CC(C)(Sc1cc(C(C)(C)C)c(O)c(C(C)(C)C)c1)Sc1cc(C(C)(C)C)c(OCCCC(=O)O)c(C(C)(C)C)c1` [Butanoic acid, 4-[4-[[1-[[3,5-bis(1,1-dimethylethyl)4-hydroxyphenyl]thio]-1-methylethyl]thio]-2,6-bis(1,1-dimethylethyl)phenoxy]-], for which, where the note is “at 15 μM”, the inhibition at 15 µM was found to be 77%.

Regarding `CC(C)(Sc1cc(C(C)(C)C)c(O)c(C(C)(C)C)c1)Sc1cc(C(C)(C)C)c(OCC(=O)N[C@@H](CCC(=O)O)C(=O)O)c(C(C)(C)C)c1` [Glutamic acid, N-[[4-[[1-[[3,5-bis(1,1-dimethylethyl)-4-hydroxyphenyl]thio]-1-methylethyl]thio]-2,6-bis(1,1-dimethylethyl)phenoxy]acetyl]-], for the setting “at 15 μM”, at 15 µM the inhibition was 94%.

In turn, `CC(C)(Sc1cc(C(C)(C)C)c(O)c(C(C)(C)C)c1)Sc1cc(C(C)(C)C)c(OC(=O)c2ccc([N+](=O)[O-])o2)c(C(C)(C)C)c1` [2-Furancarboxylic acid, 5-nitro-, 4-[[1-[[3,5-bis(1,1-dimethylethyl)-4-hydroxyphenyl]thio]-1-methylethyl]thio]-2,6-bis(1,1-dimethylethyl)phenyl ester] came in with an inhibition at 15 µM (at 15 μM) of 17%.

With “1,2,3-Butanetriol, 4-[4-[[1-[[3,5-bis(1,1-dimethylethyl)-4-hydroxyphenyl]thio]=1-methylethyl]thio]-2,6-bis(1,1-dimethylethyl)phenoxy]-2-hydroxypropyl]-”, under “at 1 μM”, the “ApoB/HepG2 % inhibition at [μM]” value is reported as 6% at 1.

In the case of `CC(C)(Sc1ccc(OCCCC(=O)O)cc1)Sc1cc(C(C)(C)C)c(O)c(C(C)(C)C)c1` [Butanoic acid, 4-[4-[[1-[[3,5-bis(1,1-dimethylethyl)-4-hydroxyphenyl]thio]-1-methylethyl]thio]phenoxy]-], at 15 µM the inhibition (at 15 μM) was 47%.

With `CC(C)(Sc1cc(C(C)(C)C)c(O)c(C(C)(C)C)c1)Sc1cc(C(C)(C)C)c(OCC(=O)NCC(=O)O)c(C(C)(C)C)c1` [Glycine, N-[[4-[[1-[[3,5-bis(1,1-dimethylethyl)-4-hydroxyphenyl]thio]-1,methylethyl]thio]-2,6-bis(1,1-dimethylethyl)phenoxylacetyl]-], the “ApoB/HepG2 % inhibition at [μM]” value (at 15 μM) turned out to be 83% at 15.
